What was measured:
human NOX1 = molecular target: T1, human NOX1 (Homo sapiens, UniProt Q9Y5S8); assay: WST-1 O2•- detection in NOX1-expressing CHO cells; format: cell-based; settings: NOX1 expressing cells, concentration-response
T1 construct: expressed in transfected cells; host or cells: CHO
T1 sequence (Q9Y5S8 1-564): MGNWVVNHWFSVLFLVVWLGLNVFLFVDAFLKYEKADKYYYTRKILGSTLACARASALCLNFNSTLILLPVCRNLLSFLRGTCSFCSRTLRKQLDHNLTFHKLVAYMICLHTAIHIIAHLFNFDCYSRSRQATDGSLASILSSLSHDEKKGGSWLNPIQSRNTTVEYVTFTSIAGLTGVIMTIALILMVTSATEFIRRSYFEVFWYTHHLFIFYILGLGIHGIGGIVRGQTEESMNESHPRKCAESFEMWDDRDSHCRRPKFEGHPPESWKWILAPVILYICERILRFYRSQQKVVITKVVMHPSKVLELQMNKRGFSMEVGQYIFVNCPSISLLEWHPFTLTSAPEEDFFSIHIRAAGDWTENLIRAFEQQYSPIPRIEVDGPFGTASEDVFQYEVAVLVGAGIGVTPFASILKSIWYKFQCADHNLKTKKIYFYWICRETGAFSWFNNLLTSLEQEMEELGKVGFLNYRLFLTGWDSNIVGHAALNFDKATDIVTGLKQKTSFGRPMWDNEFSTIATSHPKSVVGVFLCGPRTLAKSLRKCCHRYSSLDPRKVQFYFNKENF
T1 sequence (P13498 1-195 partner): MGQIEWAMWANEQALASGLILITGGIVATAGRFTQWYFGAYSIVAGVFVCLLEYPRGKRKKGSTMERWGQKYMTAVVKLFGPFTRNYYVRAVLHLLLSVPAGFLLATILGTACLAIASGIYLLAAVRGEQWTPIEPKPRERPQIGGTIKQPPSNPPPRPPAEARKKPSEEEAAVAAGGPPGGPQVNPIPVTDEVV

human NOX4 = molecular target: T2, human NOX4 (Homo sapiens, UniProt Q9NPH5); assay: WST-1 O2•- detection in tetracycline-induced NOX4 HEK293 T-REx cells; format: cell-based; settings: NOX4 expressing cells, concentration-response
T2 sequence (Q9NPH5 1-578): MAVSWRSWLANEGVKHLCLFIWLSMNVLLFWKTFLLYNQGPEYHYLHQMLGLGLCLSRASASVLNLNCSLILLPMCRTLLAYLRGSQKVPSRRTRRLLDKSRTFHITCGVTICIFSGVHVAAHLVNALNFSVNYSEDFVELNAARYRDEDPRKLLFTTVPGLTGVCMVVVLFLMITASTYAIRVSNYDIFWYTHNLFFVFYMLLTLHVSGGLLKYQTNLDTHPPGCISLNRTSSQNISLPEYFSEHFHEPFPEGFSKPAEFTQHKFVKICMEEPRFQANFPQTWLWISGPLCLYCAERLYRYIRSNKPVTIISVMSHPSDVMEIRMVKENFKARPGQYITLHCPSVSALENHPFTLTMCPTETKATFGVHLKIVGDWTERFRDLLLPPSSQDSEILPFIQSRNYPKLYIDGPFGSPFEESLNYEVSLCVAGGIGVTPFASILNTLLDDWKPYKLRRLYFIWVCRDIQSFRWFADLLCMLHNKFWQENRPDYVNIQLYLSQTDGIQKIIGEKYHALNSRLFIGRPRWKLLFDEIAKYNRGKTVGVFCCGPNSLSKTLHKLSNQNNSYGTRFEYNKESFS
T2 sequence (P13498 1-195 partner): T1 sequence (P13498 1-195 partner)

[1] = Cell-free Amplex Red/HRP assay with 10 μM H2O2 (H2O2 scavenging / HRP inhibition); settings: H2O2 alone
NOX1 = molecular target: NOX1; set-up: method as in PMID 27273790; settings: documented values, measured using Amplex Red/HRP assay; cited from earlier work
NOX5 = molecular target: NOX5; set-up: method as in PMID 27273790; settings: documented values, measured using Amplex Red/HRP assay; cited from earlier work

Activity on NOX1 in the WST-1 assay (human NOX1): inactive
Activity on NOX4 in the WST-1 assay (human NOX4): inactive
Structure (SMILES): CN(C)c1cccc(-c2c3c(=O)n(-c4ccccc4Cl)[nH]c3cc(=O)n2C)c1 [GKT137831]
Effect on Amplex red/HRP signal in the presence of H2O2 alone [1]: inhibits the Amplex red/HRP signal
Ki NOX1 (NOX1): nanomolar range
Ki NOX5 (NOX5): nanomolar range
